Patent US20220340566A1, “BENZYL AMINE-CONTAINING 5,6-HETEROAROMATIC COMPOUNDS USEFUL AGAINST MYCOBACTERIAL INFECTION” (priority 2019, published 2022)
Where two headings read alike, the source gives them in different places.

Tests used:
[1] = system: Mycobacterium avium ATCC700898; experiment: Determination of IC85 against M. avium (resazurin fluorescence); format: cell-based; settings: 37° C., 3 days incubation then resazurin, fluorescence one day later
[2] = Metabolic stability test in pooled human liver microsomes; format: in vitro ADME; settings: human liver microsomes 0.5 mg protein/mL, 1 mmol/L NADPH, 37° C., 30 minutes
Experimental: Using a commercially available pooled human liver microsomes, a compound of the present invention was reacted for a constant time, a remaining rate was calculated by comparing a reacted sample and an unreacted sample, thereby, a degree of metabolism in liver was assessed.
A reaction was performed (oxidative reaction) at 37° C. for 0 minute or 30 minutes in the presence of 1 mmol/L NADPH in 0.2 mL of a buffer (50 mmol/L Tris-HCl pH 7.4, 150 mmol/L potassium chloride, 10 mmol/L magnesium chloride) containing 0.5 mg protein/mL of human liver microsomes. After the reaction, 50 μL of the reaction solution was added to 100 μL of a methanol/acetonitrile=1/1 (v/v), mixed and centrifuged at 3000 rpm for 15 minutes. The compound of the present invention in the supernatant was quantified by LC/MS/MS or solid phase extraction (SPE)/MS, and a remaining amount of the compound of the present invention after the reaction was calculated, letting a compound amount at 0 minute reaction time to be 100%.

[3] = M. avium ATCC700898, CAMHB medium
[4] = Mycobacterium avium, ATCC700898, M. avium ATCC700898, CAMHB medium, read-out: IC85

| Structure (SMILES) | IC85 [1, 3] [nM] | MS_h_% (remaining amount of compound after reaction, 0 minute = 100%) [2] [%] | IC85 [1, 4] [nM] |
| --- | --- | --- | --- |
| C[C@H]1CN(c2ccc(CNC(=O)c3c(C(F)(F)F)nc4ccc(Cl)cn34)cc2F)CCN1c1ccc(OC(F)(F)F)cc1 [Compound I-1-24] | 32 | 62 | – |
| Cc1cn2c(C(=O)NCc3ccc(N4CCN(c5ccc(OC(F)(F)F)cc5)[C@@H](C)C4)c(F)c3)c(C)nc2s1 [Compound I-3-32] | – | 72.6 | 820 |
| CCc1nc2ccc(Cl)cn2c1C(=O)NCc1ccc(C2=CCC(c3ccc(OC(F)(F)F)cc3)CC2)c(F)c1.Cl (stereo not drawn) [Compound I-1-138] | – | 83 | 6.8 |
| Cc1ccc2nc(C)c(C(=O)NCc3ccc(N4CCN(c5ccc(OC(F)(F)F)cc5)[C@@H](C)C4)c(F)c3)n2c1 [Compound I-1-25] | – | 72 | 2.2 |
| Cc1nc2cc(Cl)ccn2c1C(=O)NCc1ccc(N2CC=C(c3ccc(OC(F)(F)F)cc3)CC2)c(F)c1.Cl [Compound I-1-60] | – | 72 | 11 |
| CCc1nc2ccc(Cl)cn2c1C(=O)NCc1ccc(N2CCN(c3ccc(OCC4CC4)cc3)[C@@H](C)C2)cc1F.Cl [Compound I-1-102] | – | 75 | 24 |
| Cc1ccn2c(C(=O)NCc3ccc(N4CCN(c5ccc(OC(F)(F)F)cc5)CC4)c(F)c3)c(C)nc2c1 [Compound I-2-12] | – | 71.4 | 23 |
| COc1ccn2nc(C)c(C(=O)NCc3ccc(N4CCN(c5ccc(OC(F)(F)F)cc5)[C@H]5CCCC[C@@H]54)c(F)c3)c2c1 [Compound I-1-125] | – | 68 | 780 |
| Cc1nc2cc(Cl)ccn2c1C(=O)NCc1ccc(N2CCC(c3ccc(OC(F)(F)F)cc3)CC2)c(F)c1.Cl [Compound I-1-69] | – | 89 | 510 |
| COc1ccn2nc(C)c(C(=O)NCc3ccc(N4C[C@H](C)N(c5ccc(OC(F)(F)F)cc5)C[C@H]4C)c(F)c3)c2c1.Cl [Compound I-1-153] | – | 72 | 31 |
| Cc1ccn2c(C(=O)NCc3ccc(N4CC=C(c5ccc(OC(F)(F)F)cc5)CC4)c(F)c3)c(C)nc2c1.Cl [Compound I-1-61] | – | 95 | 200 |
| Cc1nn2ccc(F)cc2c1C(=O)NCc1ccc(N2CCN(c3ccc(OC(F)(F)F)cc3)[C@@H](C)C2)c(F)c1.Cl [Compound I-1-152] | – | 87 | 110 |
| Cc1nc2cc(F)ccn2c1C(=O)NCc1ccc(N2CCC(c3ccc(OC(F)(F)F)cc3)CC2)c(F)c1 [Compound I-2-1] | – | 106 | 16 |
| Cc1ccn2c(C(=O)NCc3ccc(N4CCN(C5CN(CC(F)(F)F)C5)[C@@H](C)C4)c(F)c3)c(C)nc2c1 [Compound I-3-26] | – | 77 | 960 |
| CCc1nc2cc(F)ccn2c1C(=O)NCc1ccc(N2CCC(c3ccc(OC(F)(F)F)cc3)CC2)c(Cl)c1.Cl [Compound I-1-127] | – | 93 | 7.7 |
| CCc1nc2ccc(Cl)cn2c1C(=O)NCc1cc(F)c(N2CCN(c3ccc(OC(F)(F)F)cc3)[C@@H](C)C2)cc1F.Cl [Compound I-1-94] | – | 67 | 14 |
| COc1ccn2nc(C)c(C(=O)NCc3ccc(N4CCN(c5ccc(OC(F)(F)F)cc5)[C@H](C)C4)c(F)c3)c2c1.Cl [Compound I-1-91] | – | 89 | 5.3 |
| CCOc1ccc(N2CCN(c3ccc(CNC(=O)c4c(CC)nc5cc(F)ccn45)cc3F)C[C@@H]2C)cn1.Cl [Compound I-1-120] | – | 71 | 12 |
| Cc1nc2ccc(C#N)cn2c1C(=O)NCc1ccc(N2CCN(c3ccc(OC(F)(F)F)cc3)[C@@H](C)C2)c(F)c1.Cl [Compound I-1-50] | – | 94 | 500 |
| CCc1nc2cc(F)ccn2c1C(=O)NCc1ccc(N2C[C@H](C)N(c3ccc(OC(F)(F)F)cc3)C[C@H]2C)c(F)c1.Cl [Compound I-1-136] | – | 86 | 16 |
| CCc1nc2cc(C)c(F)cn2c1C(=O)NCc1ccc(N2CCN(c3ccc(OC(F)(F)F)cc3)[C@@H](C)C2)c(F)c1 [Compound I-1-49] | – | 59 | 68 |

| Structure (SMILES) | IC85 [1, 3] [nM] | MS_h_% (remaining amount of compound after reaction, 0 minute = 100%) [2] [%] | IC85 [1, 4] [nM] |
| --- | --- | --- | --- |
| CCc1nc2cc(F)ccn2c1C(=O)NCc1ccc(C2CCN(c3ccc(C)cc3)CC2)cc1F.Cl [Compound I-1-148] | – | 73 | 5.4 |
| Cc1nc2cc(F)ccn2c1C(=O)NCc1ccc(N2CCN(c3ccc(OC(F)(F)F)cc3)[C@@H](C)C2)c(F)c1 [Compound I-1-46] | – | 96 | 2.6 |
| CCc1nc2ccc(C#N)cn2c1C(=O)NCc1ccc(N2CCN(c3ccc(OC(F)(F)F)cc3)[C@@H](C)C2)c(F)c1 [Compound I-1-36] | – | 79 | 110 |
| Cc1cc2nc(C)c(C(=O)NCc3ccc(C4CCN(c5ccc(OC(F)(F)F)cc5)CC4)c(F)c3)n2cc1Cl [Compound I-1-13] | – | 82 | 57 |
| Cc1ccn2c(C(=O)NCc3ccc(O[C@H]4CCN(c5ccc(OC(F)(F)F)cc5)C4)c(F)c3)c(C)nc2c1 [Compound I-3-49] | – | 60.2 | 500 |
| Cc1ccn2c(C(=O)NCc3ccc(-c4ccc(OCC(F)(F)F)cc4)c(F)c3)c(C)nc2c1 [Compound I-3-4] | – | 94.6 | 43 |
| [2H]c1c(C([2H])([2H])[2H])c([2H])n2c(C(=O)NCc3cc(F)ccc3F)c(C)nc2c1[2H] [Compound I-3-39] | – | 67.2 | 800 |
| CCc1nc2ccc(Cl)cn2c1C(=O)NCc1ccc(C2CCN(c3ccc(OC(F)(F)F)cc3)CC2)c(F)c1 [Compound I-1-20] | – | 83 | 33 |
| COc1ccn2nc(C)c(C(=O)NCc3ccc(N4CCC(c5ccc(OC(F)(F)F)cc5)CC4)c(F)c3)c2c1.Cl [Compound I-1-123] | – | 77 | 14 |
| Cc1nc2ccccn2c1C(=O)NCc1ccc(N2CCN(c3ccc(OC(F)(F)F)cc3)[C@@H](C)C2)c(F)c1.Cl [Compound I-1-52] | – | 84 | 5.4 |
| CCc1nc2cc(F)ccn2c1C(=O)NCc1ccc(N2CCN(c3ccc(OC(F)(F)F)c(F)c3)[C@@H](C)C2)c(F)c1.Cl [Compound I-1-117] | – | 83 | 2.5 |
| Cc1ccn2c(C(=O)NCc3ccc(C4CCN(c5ccc(OCC(F)(F)F)cc5)CC4)c(F)c3)c(C)nc2c1 [Compound I-1-21] | – | 89 | 38 |
| Cc1ccn2c(C(=O)NCc3cc(F)c(N4CCC(c5ccc(OC(F)(F)F)cc5)CC4)c(F)c3)c(C)nc2c1.Cl [Compound I-1-67] | – | 93 | 68 |
| Cc1ccn2nc(C)c(C(=O)NCc3ccc(N4CCN(c5ccc(OC(F)(F)F)cc5)[C@@H](C)C4)c(F)c3)c2c1.Cl [Compound I-1-70] | – | 84 | 25 |
| C[C@H]1CN(c2ccc(CNC(=O)c3c(C(F)(F)F)nc4ccc(Cl)cn34)cc2F)CCN1c1ccc(OC(F)(F)F)cc1 [Compound I-1-29] | 2.7 | 89 | – |
| CCc1nc2cc(F)ccn2c1C(=O)NCc1ccc(C2CCN(c3ccc(C(F)(F)F)cc3)CC2)cc1F.Cl [Compound I-1-150] | – | 65 | 2.4 |
| Cc1cc2nc(C)c(C(=O)NCc3ccc(N4CCN(c5ccc(OC(F)(F)F)cc5)[C@@H](C)C4)c(F)c3)n2cc1Cl [Compound I-1-27] | – | 80 | 33 |
| Cc1ccn2c(C(=O)NCc3ccc(N4CCN(c5ccc(OC(F)(F)F)cc5)[C@H](C)C4)c(F)c3)c(C)nc2c1 [Compound I-1-12] | – | 64 | 70 |
| CCc1nc2ccc(Cl)cn2c1C(=O)NCc1ccc(N2CCN(c3ccc(OC(F)(F)F)cc3F)[C@@H](CC)C2)c(F)c1.Cl [Compound I-2-10] | – | 72.2 | 23 |
| Cc1nc2ccc(F)cn2c1C(=O)NCc1ccc(N2CC(c3ccc(OC(F)(F)F)cc3)C2)c(F)c1 [Compound I-2-8] | – | 74.9 | 130 |
| CCc1nc2ccc(Cl)cn2c1C(=O)NCc1ccc(C2CCN(c3ccc(OC(F)(F)F)cc3)CC2)cc1F [Compound I-1-10] | – | 60 | 3.1 |
